The results in this text go back to ChEMBL document CHEMBL3507680, “University of Dundee, Gates Library screen for HepG2 cell viability”.

The data set is described as follows: Human HepG2 cell viability assay in 384 well format. Type of data set: toxicity, cell-based. The note with it: HepG2 cells, read-out: Inhibition. Further details: dose 125 nL, time 70.5 hour; cytotoxicity at 70.5 h: concentration not given beside the values.

Regarding `CN(C)S(=O)(=O)c1ccc(CN2CCC(c3ccccc3)C2)o1` (configuration not stated), the cytotoxicity at 70.5 h amounted to 4.6%.
The value for `Cc1cccc(C(C)(C)CNC(=O)CN(C)c2cnccn2)c1` was -2.49%; that for `O=C(Cc1ccon1)NC1CCCN(c2ccccc2F)C1=O` (configuration not stated) was 3.76%; that for `NCc1ccnc(Oc2ccccc2)c1` was -8.2%.
As to `Cc1noc(C)c1CCc1nc(C2CCOC2)no1` (configuration not stated), the cytotoxicity at 70.5 h was -11.1%.
The value for `CN1CC(C(=O)NCCc2ccc3c(c2)OCO3)CC1=O` (configuration not stated) was -8.14%; that for `NC(=O)NC(CC(=O)N1CCc2sccc2C1)c1ccccc1F` (configuration not stated) was -17.5%; that for `Cn1ncc2c1CCCC2NCc1cccnc1` (configuration not stated) was -18.9%.
The value for `CC(c1nnc(-c2ccccc2)o1)N1CCC(Nc2ccccc2)CC1` (configuration not stated) was 8.58%; that for `O=C(CNc1ccc(OCC2CCOCC2)cc1)NCc1ccco1` was -20.8%; that for `CSc1ccc(OCCN2CCNC(=O)CC2)cc1` was -7.88%.
The value for `COCCOc1ncccc1NCc1nc2ccccc2n1C` was -15.1%; that for `CC(C)(C)Oc1ccc(NCC(=O)NCc2ccco2)cc1` was -18.5%; that for `Cc1noc(CCCc2nc(C3CCOC3)no2)n1` (configuration not stated) was -18.7%.
With `COc1ccccc1CN(Cc1nc(Cc2ccccc2)no1)C1CC1`, the cytotoxicity at 70.5 h was -10.7%.
For `COCc1nn(Cc2ccc(Cl)s2)c(=O)o1`, the cytotoxicity at 70.5 h was -13.7%.
As for `CC(C)c1nc(C2CCCN2CCNS(C)(=O)=O)no1` (configuration not stated), the cytotoxicity at 70.5 h is -19.2%.
The value for `CC(NCC(=O)N1CCc2sccc2C1)c1ccccc1F` (configuration not stated) was -15.8%; that for `O=C1C(N2CCOCC2)CCCN1Cc1cccc(C(F)(F)F)c1` (configuration not stated) was -17.4%; that for `O=C1C(N2CC[C@@H](O)C2)CCCN1Cc1cccc(C(F)(F)F)c1` (some centres not stated) was -18.9%.
For the compound `NCc1ccnc(Oc2ccc(F)cc2)c1`, the cytotoxicity at 70.5 h was -17%.
The value for `CC(=O)N1CCCN(C(=O)NCCCNS(C)(=O)=O)CC1` was 9.32%.
The value for `CC(=O)N1CCN(C(=O)NCCCN(C(C)C)S(C)(=O)=O)CC1` was -8.44%.
The value for `Cc1cnn(C2CN(Cc3noc(C4CC4)n3)C2)c1` was -4.77%; that for `CSCCC(NC(N)=O)C(=O)N1CCC(Cc2ccccc2)CC1` (configuration not stated) was -3.12%.
In the case of `COc1cccc(N2CCC(CNc3cc(C)nc4ncnn34)C2)c1` (configuration not stated), the cytotoxicity at 70.5 h is -1.68%.
For `CC(NC(=O)C1(NC(=O)c2ccc3[nH]ncc3c2)CCCC1)C1CC1` (configuration not stated), the cytotoxicity at 70.5 h was -5.24%.
The value for `N#Cc1cccc(S(=O)(=O)NC(=O)CCOCC(F)(F)F)c1` was -3.71%; that for `COc1c(C(=O)N2CCC(CSc3ccccc3)C2)c(C)nn1C` (configuration not stated) was 1.84%.
The value for `C[S+]([O-])CCNC(=O)Nc1cc(F)ccc1-n1cccn1` (configuration not stated) was 15.9%.
With `CS(=O)(=O)N1CCC(Nc2ccnc3ccc(Cl)cc23)CC1`, the cytotoxicity at 70.5 h was -3.71%.
In the case of `CN(CCc1ccc2c(c1)CCO2)C1CCS(=O)(=O)CC1`, the cytotoxicity at 70.5 h was found to be 16.1%.
The value for `Cc1ccc(S(C)(=O)=O)cc1C(=O)NS(C)(=O)=O` was -7.69%.
The value for `CCc1ccc(CC)c(NCC(=O)N2CCCC(NC(C)=O)C2)c1` (configuration not stated) was -6.55%.
The value for `CCC(C)NS(=O)(=O)Cc1cccc(NC(=O)C(C)C)c1` (configuration not stated) was -2.19%; that for `CC(=O)NC1CCCN(C(=O)CNc2cc(Cl)cc(Cl)c2)C1` (configuration not stated) was -5.65%.
As for `COc1ccc(C)c(NC(=O)NCc2cccc(N(C)C)n2)c1`, the cytotoxicity at 70.5 h is -6.19%.
The value for `COCc1c(Cl)cccc1NC(=O)NCc1cccc(N(C)C)n1` was 1.02%; that for `COc1c(C(=O)N2CCC(COCc3ccccc3)C2)c(C)nn1C` (configuration not stated) was -0.0423%.
The value for `CC(C)C(O)CCNC(=O)Nc1cc(F)ccc1-n1cccn1` (configuration not stated) was 14.9%; that for `Cc1cnn(C2CN(Cc3nnc(C4CC4)o3)C2)c1` was -10.1%; that for `CC(C)c1nc(C2CCCN2c2ccnc(C3CCCC3)n2)no1` (configuration not stated) was -6.75%.
The value for `Cc1cnn(C2CN(Cc3noc(C)n3)C2)c1` was -6.5%; that for `Cc1cc(=O)n2nc(Oc3cccc(I)c3)sc2n1` was -20.9%.
With `CN(C)c1ncccc1CNC(=O)NCC(c1cccs1)N(C)C` (configuration not stated), the cytotoxicity at 70.5 h was -23.8%.
The value for `CN(C)CCn1c2c(ccc1=O)CCN(Cc1ccncc1)CC2` was -4.6%; that for `Cc1noc(C)c1CN1CCn2cc(CN3CCOCC3)nc2C1` was -0.251%.
The value for `COCCN(C)C(=O)c1nc2c(s1)CCCN2c1ccc(C)nn1` was -1.66%; that for `O=C(CC1CC1)N1C[C@H]2CCN[C@H]2C1` was -4.97%.
The value for `CC(C)(C)CC(=O)N1C[C@H]2CCN[C@H]2C1` was -2.71%.
Turning to `O=C1CO[C@@H]2CN(S(=O)(=O)c3ccc(F)cc3)C[C@H]2N1`, the cytotoxicity at 70.5 h stood at 15.2%.
Take `COCC1COCCC12CCN(S(=O)(=O)c1ccc(C)cc1)CC2` (configuration not stated): the cytotoxicity at 70.5 h is -4.01%.
The value for `CN(C)CCOCc1cncc2c1CCN(C(=O)c1cscn1)C2` was -3.85%.
`COc1cc(N2C[C@@H]3COC[C@@H](Cc4nc(C)no4)[C@@H]3C2)ncn1`: the cytotoxicity at 70.5 h is -7.51%.
The value for `COCC(=O)N1CCC2(CC1)CN(CC1CC1)c1ccc(F)cc12` was 2.37%.
The value for `CC1c2ncc(Cn3cccn3)n2CCN1S(=O)(=O)C1CC1` (configuration not stated) was -5.83%; that for `O=C(c1ccno1)N1CC[C@@H]2CN(C3CCOCC3)CCO[C@@H]2C1` was -5.94%.
As for `Cc1nc(-c2ccccc2)nc2c1CCN(Cc1nccn1C)CC2`, the cytotoxicity at 70.5 h is -10.4%.
Turning to `Cn1c2c(c(=O)n1C)CN(C(=O)c1cnccn1)CCC2`, the cytotoxicity at 70.5 h was -8.23%.
The value for `CN(C)CC(=O)N1CCO[C@@H]2CC(COCc3ccncc3)C[C@H]21` (some centres not stated) was -8%; that for `Cn1nccc1-c1cnc2n1CCC21CCN(C(=O)C2(C)CC2)CC1` was -11%; that for `COCCN1CCN(c2cc(OC)ncn2)Cc2ccc(C)nc21` was -10.4%.
The value for `O=C(Cc1ccccn1)N1C[C@H]2CN(Cc3ccccn3)C[C@H]2C1` was -10%; that for `CSc1ccc(CNC2CCCc3c2cnn3C)cc1` (configuration not stated) was -8.39%.
As to `CC(C)(C)c1n[nH]cc1CNC1CCC(OCC(F)(F)F)CC1` (configuration not stated), the cytotoxicity at 70.5 h was -11.2%.
The value for `CN(CCc1ccccn1)C(=O)c1cccs1` was -2.46%; that for `CC(C)N(C)Cc1cncc2c1CCN(CC1CC1)C2` was 15.2%; that for `Cc1cc(CN2C[C@H](OCC3CCOCC3)[C@H]3COC[C@H]32)oc1C` was -0.082%.
As to `O=C(C1CCOCC1)N1C[C@H]2CCC[C@@]2(COc2cccnc2)C1`, the cytotoxicity at 70.5 h was -1.29%.
For the compound `CN(C)CCN1C(=O)CCCC12CCCN(C(=O)c1cc[nH]n1)C2` (configuration not stated), the cytotoxicity at 70.5 h is -4.9%.
The value for `O=C(c1ccoc1)N1CCOC2(COCCN(CC3CC3)C2)C1` (configuration not stated) was -1.92%; that for `c1cc(CN2CC[C@@H]3CN(c4cnccn4)C[C@@H]3C2)ccn1` was -3.4%; that for `O=C(c1cscn1)N1CCc2c(COCC3CC3)cncc2C1` was -1.4%.
The value for `CN(C)Cc1nc2c(o1)CN(S(=O)(=O)c1cccs1)C2` was -9.46%; that for `Cc1ccc(C(=O)N2CC[C@@H]3CN(C4CCOCC4)CCO[C@@H]3C2)o1` was -7.78%; that for `O=S(=O)(c1cccs1)N1Cc2nc(CN3CCCCC3)oc2C1` was -8.94%.
The value for `O=C(c1cccs1)N1CC[C@@H]2CN(C3CCOCC3)CCO[C@@H]2C1` was -6.31%; that for `Cc1ccoc1C(=O)N1CC[C@@H]2CN(C3CCOCC3)CCO[C@@H]2C1` was -0.955%; that for `Cc1nnc(N2CCCC3(CN(c4ccccn4)CCO3)C2)o1` (configuration not stated) was 1.16%.
Take `CN1C(=O)CCC12CCN(c1ccc(C#N)cn1)CC2`: the cytotoxicity at 70.5 h is -8.99%.
The value for `c1cnc(N2C[C@H]3CCN(Cc4ccncc4)C[C@H]3C2)nc1` was -7.09%.
Turning to `Cc1ccc(N2C[C@H]3CCN(Cc4ccncc4)C[C@H]3C2)nn1`, the cytotoxicity at 70.5 h was -9.91%.
The value for `CCc1ccc(S(=O)(=O)N2Cc3c(CN(C)C)nn(C)c3C2)cc1` was -5.86%.
The value for `O=C(c1ccno1)N1CCO[C@@H]2CC(COCc3ccccn3)C[C@H]21` (some centres not stated) was -6.23%; that for `O=C(C1CCC1)N1C[C@@H]2CN(Cc3ccncc3)C(=O)[C@@H]2C1` was -12.5%; that for `Cc1nc(N2CCOCC2)nc2c1CCN(Cc1nccn1C)CC2` was -11.2%.
The value for `Cc1nc(C)c2c(n1)CCN(Cc1nccn1C)CC2` was -8.56%.
As to `CCOC(=O)[C@]12CCCN(Cc3cccs3)C[C@H]1CN(CCOC)C2`, the cytotoxicity at 70.5 h is 1.08%.
The value for `c1ccc(N2CC[C@H](OCC3CC3)[C@@H]2Cc2cccnc2)nc1` was -3.44%; that for `c1cncc(OC[C@@]23CCC[C@@H]2CN(CC2CCOCC2)C3)c1` was -1.42%.
In the case of `CCOC(=O)[C@]12CCCN(Cc3cccs3)C[C@H]1CN(CC(C)C)C2`, the cytotoxicity at 70.5 h was -2.32%.
For `CCN1CCC2(C1)CN(S(=O)(=O)c1cn(C)cn1)C2`, the cytotoxicity at 70.5 h is -5.09%.
The value for `O=C(c1ccncc1)N1CC[C@@H]2CN(C3CCOCC3)CCO[C@@H]2C1` was -9.58%; that for `CC(C)CN1CCC2(C1)CN(S(=O)(=O)c1cn(C)cn1)C2` was 4.36%; that for `c1cnc(N2C[C@H]3CCN(CCN4CCCC4)C[C@H]3C2)cn1` was -5.43%.
For `CC(C)N1CCO[C@H]2CN(Cc3cc[nH]n3)C[C@H]21`, the cytotoxicity at 70.5 h is -5.26%.
`COCCN1CCO[C@H]2CN(Cc3cccc(C)n3)C[C@H]21`: the cytotoxicity at 70.5 h is -5.32%.
